Values of other authors in patent publication US6465677B1, “Method for the preparation of N-neohexyl-α-aspartyl-L-phenylalanine methyl ester from imidazolidin-4-one intermediates” (The NutraSweet Company, priority 1998, dated 2002).

Conditions: on a weight basis

For COC(=O)[C@H](Cc1ccccc1)NC(=O)[C@H](CC(=O)O)NCCC(C)(C)C [neotame, N-[N-(3,3-dimethylbutyl)-L-α-aspartyl]-L-phenylalanine 1-methyl ester], the “sweetness relative to sucrose” value is given as “approximately 8,000 times as sweet as sucrose”.
